Laboratory results taken from US20090082314A1, “Targeting Prodrugs for the Treatment of Gastrointestinal Diseases” (The Provost Fellows and Scholars of the College of the, priority 2007, published 2009).

What was measured:
thymus = assay: Systemic side effects: thymus weight to body weight ratio in DSS-induced colitis mice; format: in vivo, BALB/c mice; conditions: for T/BW ratio (thymus weight:body weight) versus vehicle-treated mice: 5 mg/Kg oral twice a day, 5% DSS, FIG. 18, one-way ANOVA with Tukey post test
Description: The DSS induced colitis mice weighting about 18-20 grams were allowed 5% DSS water ad libitum and 100 μL of prednisolone and prodrug 2 in 1% solution cremophor and ethanol in water suspension (equivalent to 5 mg of prednisolone per Kg or mouse body weight) was orally administrated, twice a day (every twelve hours) to the colitis mice. Six days after the prednisolone and prodrugs treatments, the mice were sacrificed by cervical dislocation. The distal colon segment and the thymus were removed and washed to remove contents of the colon. One centimetre of the distal colon segment and the fresh weight of the thymus were measured to obtain the ratios of distal colon weight and thymus weight to body weight (C/B and T/B respectively). The damage of the colon specimens were scored as describe in materials and methods. The distal segments were frozen by liquid nitrogen kept at −80° C. until assayed for myeloperoxidase activity (MPO). Systemic side effects were study by comparison of the thymus weight and body weight ratio (Hideki Yano 2002) between health mice, untreated mice, prednisolone treated mice and prodrug treated mice, due to the fact that an increase on the concentration of steroid in the bloodstream provokes suppression on the activity of the thymus and the consequent reduction of its weight.

DSS-induced colitis mice = assay: Drug efficacy in DSS-induced colitis mice (body weight loss, DAI, colon length); format: in vivo, BALB/c mice; conditions: for body weight loss versus vehicle only controls / severity of disease (DAI score) versus vehicle alone / colon shortening versus vehicle alone: 5 mg/Kg oral twice a day, 5% DSS; for body weight loss versus vehicle only controls: FIG. 15, one-way ANOVA with Tukey post test; for severity of disease (DAI score) versus vehicle alone: FIG. 16, one-way ANOVA with Tukey post test; for colon shortening versus vehicle alone: FIG. 17, one-way ANOVA with Tukey post test
Description: BALB/c strain mice were from the Bioresources Unit (Trinity College Dublin). Mice were housed in individually ventilated and filtered cages under positive pressure (Tecniplast, Nothants, UK). Food and water were supplied ad libitum. All animal experiments were performed in compliance with Irish Department of Health and Children regulations and approved by the Trinity College Bioresources ethical review board.
All in vivo experiments were performed with six mice per group. […] Colitis scores were analyzed by Mann-Whitney test. P values <0.05 were considered significant. Results on the DIA, C/B and T/B MPO were expressed as means±S.E.
DSS ([…]; MP Biomedicals, OH) was dissolved in the drinking water of the mice. Fresh DSS solution was provided every second day. BALB/c mice were exposed to 5% DSS for six days. The mice were checked every day for morbidity and weight recorded. Induction of colitis was determined by weight loss, fecal blood and, upon autopsy, length of colon. Blood in feces was detected using a Hemdetect occult blood detection kit (Dipro, Austria).
To quantify induction of colitis, a disease activity index (DAI) was determined based on previous studies of DSS-induced colitis (Cooper 1993). DAI was calculated for each mouse daily based on body weight loss, occult blood and stool consistency/diarrhea. A score of […] was given for each parameter, with a maximum DAI score of 12. Score 0, No weight loss, normal stool, no blood; Score 1, 1-3% weight loss; Score 2, 3-6% weight loss, loose stool, blood visible in stool; Score 3, 6-9% weight loss; Score 4, […]. Loose stool was defined as the formation of a stool that readily becomes paste upon handling. Diarrhea was defined as no stool formation. Gross bleeding was defined as fresh blood on fur around the anus with extensive blood in the stool,
At autopsy the length of the colon was measured and a 1 cm section of colon was fixed in 10% formaldehyde-saline. H&E-stained sections were grading based on a scoring system modified from a previous study (Siegmund 2001). Histology scoring was performed in a blinded fashion. A combined score of inflammatory cell infiltration and tissue damage was determined as follows: Cell infiltration: Score 0, Occasional inflammatory cells in the LP; 1, Increased infiltrate in the LP predominantly at the base of crypts; 2, Confluence of inflammatory infiltrate extending into the mucosa; 3, Trans-mural extension of infiltrate. Tissue Damage Score 0, No mucosal damage; 1, Partial (up to 50%) loss of crypts in large areas; 2, Partial to total 50-100% loss of crypts in large areas, epithelium intact; 3, Total loss of crypts in large areas and epithelium lost.
The DSS induced colitis mice weighting about 18-20 grams were allowed 5% DSS water ad libitum and 100 μL of prednisolone and prodrug 2 in 1% solution cremophor and ethanol in water suspension (equivalent to 5 mg of prednisolone per Kg or mouse body weight) was orally administrated, twice a day (every twelve hours) to the colitis mice. Six days after the prednisolone and prodrugs treatments, the mice were sacrificed by cervical dislocation. The distal colon segment and the thymus were removed and washed to remove contents of the colon.
One centimetre of the distal colon segment and the fresh weight of the thymus were measured to obtain the ratios of distal colon weight and thymus weight to body weight (C/B and T/B respectively). The damage of the colon specimens were scored as describe in materials and methods. The distal segments were frozen by liquid nitrogen kept at −80° C. until assayed for myeloperoxidase activity (MPO).
Anti-inflammatory effects were studied by comparison of the distal colon length between healthy mice, untreated mice, prednisolone treated mice and prodrug treated mice. IBD causes shortering of the colon. […]

[1] = Intramolecular lactamization (cyclization) kinetics of amino prodrugs in aqueous solution, HPLC; format: physicochemical; conditions: 37° C., pH not given, read-out: calculated half-life of lactamization (T1/2=0.693/kobs) (converted)
Description: Release of steroid in vivo from the prodrugs hinges upon the cyclization of the amino steroid product of azo-reductase activity. The cyclization rates of the amino derivatives of cortisone A and B were monitored in aqueous solution at various pH values and at 37° C. by measuring remaining compound by HPLC along with the evolution of cortisone.
The first order rate constant for disappearance can be obtained from a plot of the natural log of remaining ester versus time. The half-life can be calculated (T1/2=0.693/kobs).

[2] = rat intestinal perfusate; cited from earlier work
[3] = after 24 h at pH 7 (45° C.); cited from earlier work
[4] = neutrality, 39° C.; cited from earlier work
[5] = 5 mg/Kg, Student's t-test, original analysis

Compound | T/BW ratio (thymus weight:body weight) versus vehicle-treated mice (thymus) | body weight loss versus vehicle only controls (DSS-induced colitis mice) | severity of disease (DAI score) versus vehicle alone (DSS-induced colitis mice) | colon shortening versus vehicle alone (DSS-induced colitis mice) | half-life [1] [h] | further results
CC12C=CC(=O)C=C1CCC1C2C(O)CC2(C)C1CCC2(O)C(=O)COC(=O)CCc1ccccc1/N=N/c1ccc(O)c(C(=O)O)c1 (stereo not drawn) [Mutual Prodrug 2, 5-(2-{2[2-(11,17-dihydroxy-10,13-dimethyl-10,13-dimethyl-3-oxo-6,7,8,9,10,11,12,13,14,15,16,17-dodecahydro-3H-cyclopenta[a]phenanthrene-17-yl)-2-oxo-ethoxycarbonyl]ethyl}-phenylazo}-2-hydroxy-benzoic acid] | not statistically different | weight loss was decreased | significantly reduced | significantly less shortening | – | colon length (DSS-induced colitis mice; [5]): significantly longer colon than the PRED
CC12CCC(=O)C=C1CCC1C2C(O)CC2(C)C1CCC2(O)C(=O)COC(=O)CCc1ccccc1N (stereo not drawn) [prodrug B] | – | – | – | – | 1.4 | –
C[C@]12C=CC(=O)C=C1CC[C@@H]1[C@@H]2[C@@H](O)C[C@@]2(C)[C@H]1CC[C@]2(O)C(=O)CO [Prednisolone] | significant reduction in T/BW ratio | weight loss was decreased | significantly reduced | significantly less shortening | – | thymus:BW ratio versus Untreated mice (thymus; [5]): significant reduction in thymus:BW ratio
C[C@]12CCC(=O)C=C1CC[C@@H]1[C@@H]2[C@@H](O)C[C@@]2(C)[C@H]1CC[C@]2(O)C(=O)COC(=O)CCC(=O)O [hydrocortisone-21-succinate] | – | – | – | – | – | first-order rate constant for hydrolysis [2]: 0.003 min⁻¹; disappearance [3]: less than 5%
COC(=O)CCc1ccccc1N [methyl 3-(2-aminophenyl)propionate] | – | – | – | – | – | apparent first-order rate constant of spontaneous cyclization [4]: 0.0002 s⁻¹
CC12CCC(=O)C=C1CCC1C2C(O)CC2(C)C1CCC2(O)C(=O)COC(=O)Cc1ccccc1N (stereo not drawn) [prodrug A] | – | – | – | – | 2.2 | –
